Assay results reported in patent US20090143279A1 (priority 2007, published 2009).
Where two headings read alike, the source gives them in different places.

What was measured:
OXPHOS gene expression = type: cell-based, mouse; conditions: for GE-HTS (composite Z-score): normalized score vs mock-treated (DMSO) wells
nuOXPHOS transcripts = type: cell-based, mouse; conditions: for nucOX (composite Z-score): normalized score vs mock-treated (DMSO) wells
mtOXPHOS transcripts = type: cell-based, mouse; conditions: for mitoOX (composite Z-score): normalized score vs mock-treated (DMSO) wells
C2C12 myotubes = conditions: for Viability (composite Z-score): normalized score vs mock-treated (DMSO) wells
cytochrome c = type: cell-based, mouse; conditions: for cyt c (composite Z-score): normalized score vs mock-treated (DMSO) wells
[1] = system: mitochondrial membrane potential; type: cell-based, mouse; conditions: for ΔΨm (composite Z-score): normalized score vs mock-treated (DMSO) wells
reactive oxygen species = type: cell-based, mouse; conditions: for ROS (composite Z-score): normalized score vs mock-treated (DMSO) wells
[2] = system: cellular dehydrogenase activity; conditions: for MTT (composite Z-score): normalized score vs mock-treated (DMSO) wells
[3] = composite Z-score vs DMSO, Conc 20 μM
[4] = composite Z-score vs mock-treated (DMSO) wells, Conc 20 μM
[5] = normalized composite Z-score vs mock-treated (DMSO) wells, Conc 20 μM
[6] = composite Z-score vs DMSO wells, Conc 20 μM
[7] = composite Z-score vs DMSO, Conc 20.38 μM
[8] = 20 μM, composite Z-score vs DMSO
[9] = 27.18 μM, composite Z-score vs DMSO

COC(=O)C[C@H]1C2(C)CC34OC5(C)O[C@@]6([C@H](OC(C)=O)C(OC(C)=O)[C@]7(C)C(/C(=C(/O)C(C)C)C(=O)O[C@H]7c7ccoc7)[C@@]6(O5)[C@H](OC(C)=O)[C@@]3(O)C2OC(=O)C(C)C)[C@]14C (stereo partly shown) [bussein]
GE-HTS (OXPHOS gene expression; [3]): −0.809 | GE-HTS (OXPHOS gene expression; [4]): 1.630 | nucOX (nuOXPHOS transcripts; [3]): −0.683 | nucOX (nuOXPHOS transcripts; [4]): 1.431 | mitoOX (mtOXPHOS transcripts; [3]): −0.868 | mitoOX (mtOXPHOS transcripts; [4]): 1.660 | Viability (C2C12 myotubes; [3]): −0.052 | Viability (C2C12 myotubes; [4]): 0.575 | cyt c (cytochrome c; [3]): 0.622 | cyt c (cytochrome c; [4]): −1.496 | ΔΨm [1, 3]: −0.807 | ΔΨm [1, 4]: 0.367 | ROS (reactive oxygen species; [3]): 0.656 | ROS (reactive oxygen species; [4]): −0.449 | MTT [2, 3]: −0.599 | MTT [2, 4]: −1.406

CCC[C@H]1CC2=C(C[C@@H](CC)CC3=C1C(=O)OC3=O)C(=O)OC2=O [byssochlamic acid]
GE-HTS (composite Z-score) (OXPHOS gene expression; Conc 20 μM): −0.230 | nucOX (composite Z-score) (nuOXPHOS transcripts; Conc 20 μM): −0.069 | mitoOX (composite Z-score) (mtOXPHOS transcripts; Conc 20 μM): −0.458 | Viability (composite Z-score) (C2C12 myotubes; Conc 20 μM): −0.241 | cyt c (composite Z-score) (cytochrome c; Conc 20 μM): −1.053 | ΔΨm (composite Z-score) ([1]; Conc 20 μM): −0.092 | ROS (composite Z-score) (reactive oxygen species; Conc 20 μM): 0.253 | MTT (composite Z-score) ([2]; Conc 20 μM): −0.488

NCCCCCN [cadaverine]
GE-HTS (OXPHOS gene expression; [3]): −0.553 | nucOX (nuOXPHOS transcripts; [3]): −0.667 | mitoOX (mtOXPHOS transcripts; [3]): −0.205 | Viability (C2C12 myotubes; [3]): −1.003 | cyt c (cytochrome c; [3]): −0.135 | ΔΨm [1, 3]: −0.730 | ROS (reactive oxygen species; [3]): 0.160 | MTT [2, 3]: −0.915

CC1=CC2C(C(C)C)CCC(C)(O)C2CC1 (stereo not shown) [cadin-4-en-10-ol]
GE-HTS (OXPHOS gene expression; [5]): −0.610 | nucOX (nuOXPHOS transcripts; [5]): −0.244 | mitoOX (mtOXPHOS transcripts; [5]): −1.252 | Viability (C2C12 myotubes; [5]): −0.101 | cyt c (cytochrome c; [5]): 0.328 | ΔΨm [1, 5]: −0.297 | ROS (reactive oxygen species; [5]): 0.180 | MTT [2, 5]: −0.041

C[C@@]12CCc3occc3[C@H]1CC[C@@]13C[C@@H](CC[C@H]12)[C@@](O)(CO)C3 [cafestol]
GE-HTS (OXPHOS gene expression; [3]): −0.833 | nucOX (nuOXPHOS transcripts; [3]): −0.385 | mitoOX (mtOXPHOS transcripts; [3]): −1.543 | Viability (C2C12 myotubes; [3]): 0.025 | cyt c (cytochrome c; [3]): 1.374 | ΔΨm [1, 3]: 1.283 | ROS (reactive oxygen species; [3]): 0.832 | MTT [2, 3]: 1.124

O=C(O)CN(CC(=O)O)Cc1cc2c(cc1O)Oc1cc(O)c(CN(CC(=O)O)CC(=O)O)cc1C21OC(=O)c2ccccc21 [calcein]
GE-HTS (OXPHOS gene expression; [6]): −0.625 | nucOX (nuOXPHOS transcripts; [6]): −0.468 | mitoOX (mtOXPHOS transcripts; [6]): −0.829 | Viability (C2C12 myotubes; [6]): 5.567 | cyt c (cytochrome c; [6]): 0.465 | ΔΨm [1, 6]: −3.437 | ROS (reactive oxygen species; [6]): 11.668 | MTT [2, 6]: −0.243

CCOc1nc2cccc(C(=O)OC(C)OC(=O)OC3CCCCC3)c2n1Cc1ccc(-c2ccccc2-c2nn[nH]n2)cc1 (stereo not shown) [candesartan cilextil]
GE-HTS (OXPHOS gene expression; [3]): −0.432 | nucOX (nuOXPHOS transcripts; [3]): −0.259 | mitoOX (mtOXPHOS transcripts; [3]): −0.658 | Viability (C2C12 myotubes; [3]): 1.842 | cyt c (cytochrome c; [3]): 1.328 | ΔΨm [1, 3]: −0.743 | ROS (reactive oxygen species; [3]): 1.855 | MTT [2, 3]: −1.116

C[C@]12CCC(=O)C=C1C=C[C@@H]1[C@@H]2CC[C@@]2(C)[C@H]1CC[C@@]2(O)CCC(=O)O [canrenoic acid]
GE-HTS (composite Z-score) (OXPHOS gene expression; Conc 20 μM): 0.072 | nucOX (composite Z-score) (nuOXPHOS transcripts; Conc 20 μM): 0.154 | mitoOX (composite Z-score) (mtOXPHOS transcripts; Conc 20 μM): −0.047 | Viability (composite Z-score) (C2C12 myotubes; Conc 20 μM): −0.004 | cyt c (composite Z-score) (cytochrome c; Conc 20 μM): 0.732 | ΔΨm (composite Z-score) ([1]; Conc 20 μM): −0.749 | ROS (composite Z-score) (reactive oxygen species; Conc 20 μM): 0.803 | MTT (composite Z-score) ([2]; Conc 20 μM): −0.973

C[C@@]12C(=O)OC(=O)[C@]1(C)[C@H]1CC[C@@H]2O1 [cantharidin]
GE-HTS (OXPHOS gene expression; [3]): 1.196 | GE-HTS (OXPHOS gene expression; [7]): 0.217 | nucOX (nuOXPHOS transcripts; [3]): 0.477 | nucOX (nuOXPHOS transcripts; [7]): 0.144 | mitoOX (mtOXPHOS transcripts; [3]): 2.498 | mitoOX (mtOXPHOS transcripts; [7]): 0.310 | Viability (C2C12 myotubes; [3]): −4.063 | Viability (C2C12 myotubes; [7]): −4.714 | cyt c (cytochrome c; [3]): −5.284 | cyt c (cytochrome c; [7]): −5.104 | ΔΨm [1, 3]: −2.513 | ΔΨm [1, 7]: −2.722 | ROS (reactive oxygen species; [3]): −2.764 | ROS (reactive oxygen species; [7]): −2.786 | MTT [2, 3]: −5.729 | MTT [2, 7]: −5.122

COC(=O)C[C@H]1C(C)(C)C(=O)[C@@H]2CC3=C(CC[C@]4(C)C3=CC(=O)O[C@H]4c3ccoc3)[C@@]1(C)C2=O [carapin-8 (9)-ene]
GE-HTS (composite Z-score) (OXPHOS gene expression; Conc 20 μM): 0.121 | nucOX (composite Z-score) (nuOXPHOS transcripts; Conc 20 μM): −0.003 | mitoOX (composite Z-score) (mtOXPHOS transcripts; Conc 20 μM): 0.284 | Viability (composite Z-score) (C2C12 myotubes; Conc 20 μM): 1.357 | cyt c (composite Z-score) (cytochrome c; Conc 20 μM): 0.412 | ΔΨm (composite Z-score) ([1]; Conc 20 μM): −0.223 | ROS (composite Z-score) (reactive oxygen species; Conc 20 μM): 0.766 | MTT (composite Z-score) ([2]; Conc 20 μM): −1.272

COC(=O)C[C@H]1C(C)(C)C(=O)[C@@H]2CC3C4=CC(=O)O[C@@H](c5ccoc5)[C@]4(C)CC[C@@H]3[C@@]1(C)C2=O (stereo partly shown) [carapin]
GE-HTS (OXPHOS gene expression; [4]): 0.512 | nucOX (nuOXPHOS transcripts; [4]): 0.665 | mitoOX (mtOXPHOS transcripts; [4]): 0.058 | Viability (C2C12 myotubes; [4]): 1.424 | cyt c (cytochrome c; [4]): −0.096 | ΔΨm [1, 4]: −0.524 | ROS (reactive oxygen species; [4]): 1.897 | MTT [2, 4]: −0.925

C[N+](C)(C)CCOC(N)=O [carbachol]
GE-HTS (OXPHOS gene expression; [8]): 0.355 | GE-HTS (OXPHOS gene expression; [9]): −0.060 | nucOX (nuOXPHOS transcripts; [8]): 0.273 | nucOX (nuOXPHOS transcripts; [9]): −0.176 | mitoOX (mtOXPHOS transcripts; [8]): 0.391 | mitoOX (mtOXPHOS transcripts; [9]): 0.191 | Viability (C2C12 myotubes; [8]): −0.502 | Viability (C2C12 myotubes; [9]): −0.239 | cyt c (cytochrome c; [8]): −0.154 | cyt c (cytochrome c; [9]): −0.202 | ΔΨm [1, 8]: −0.965 | ΔΨm [1, 9]: −0.296 | ROS (reactive oxygen species; [8]): 1.304 | ROS (reactive oxygen species; [9]): 1.223 | MTT [2, 8]: −1.002 | MTT [2, 9]: 0.905

COC(=O)N/N=C/c1c[n+]([O-])c2ccccc2[n+]1[O-] [carbadox]
GE-HTS (OXPHOS gene expression; [3]): −0.802 | nucOX (nuOXPHOS transcripts; [3]): −0.599 | mitoOX (mtOXPHOS transcripts; [3]): −1.076 | Viability (C2C12 myotubes; [3]): −0.905 | cyt c (cytochrome c; [3]): −0.250 | ΔΨm [1, 3]: −1.394 | ROS (reactive oxygen species; [3]): −0.079 | MTT [2, 3]: −1.334

CC1(C)S[C@@H]2[C@H](NC(=O)C(C(=O)O)c3ccccc3)C(=O)N2[C@H]1C(=O)O (stereo partly shown) [carbenicillin]
GE-HTS (OXPHOS gene expression; [8]): −0.869 | nucOX (nuOXPHOS transcripts; [8]): −0.835 | mitoOX (mtOXPHOS transcripts; [8]): −0.823 | Viability (C2C12 myotubes; [8]): −0.524 | cyt c (cytochrome c; [8]): −0.074 | ΔΨm [1, 8]: 0.298 | ROS (reactive oxygen species; [8]): 2.042 | MTT [2, 8]: −0.565

Cc1c(C(=O)O)c(O)cc2c1C(=O)c1c(O)c([C@@H]3O[C@H](CO)[C@@H](O)[C@H](O)[C@H]3O)c(O)c(O)c1C2=O [carminic acid]
GE-HTS (OXPHOS gene expression; [3]): −0.727 | nucOX (nuOXPHOS transcripts; [3]): −0.662 | mitoOX (mtOXPHOS transcripts; [3]): −0.671 | Viability (C2C12 myotubes; [3]): −0.905 | cyt c (cytochrome c; [3]): −0.243 | ΔΨm [1, 3]: −0.378 | ROS (reactive oxygen species; [3]): 0.083 | MTT [2, 3]: −1.295

C=C1CC[C@H]2O[C@]2(C)CC[C@@H]2[C@@H]1CC2(C)C [carylophyllene oxide]
GE-HTS (OXPHOS gene expression; [5]): −0.087 | nucOX (nuOXPHOS transcripts; [5]): 0.060 | mitoOX (mtOXPHOS transcripts; [5]): −0.324 | Viability (C2C12 myotubes; [5]): −0.547 | cyt c (cytochrome c; [5]): 0.321 | ΔΨm [1, 5]: −0.246 | ROS (reactive oxygen species; [5]): 0.636 | MTT [2, 5]: −0.713

CC(=O)Oc1cc(OC(C)=O)c2c(c1)O[C@H](c1ccc(OC(C)=O)c(OC(C)=O)c1)[C@@H](OC(C)=O)C2 [catechin pentaacetate]
GE-HTS (OXPHOS gene expression; [5]): 0.269 | nucOX (nuOXPHOS transcripts; [5]): 0.314 | mitoOX (mtOXPHOS transcripts; [5]): 0.161 | Viability (C2C12 myotubes; [5]): 0.652 | cyt c (cytochrome c; [5]): 0.425 | ΔΨm [1, 5]: −2.799 | ROS (reactive oxygen species; [5]): −1.649 | MTT [2, 5]: −1.126
